Measurements from patent US10844049B2, “GLP-1R agonists and uses thereof” (QILU REGOR THERAPEUTICS INC., priority 2018, dated 2020).

Tests used:
[1] = biological target: T1, GLP1R (Homo sapiens, UniProt P43220); test: GLP1R cAMP HTRF assay, HEK293/GLP-1R/CRE/Luc (HEK293T cells); assay type: cell-based; settings: read-out: EC50
In short: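 cAMP accumulation via HTRF after 30 min, 37 °C exposure of 1000 receptor-expressing cells/well to compound (0.5% DMSO final) in IBMX (500 μM)/0.1% BSA DPBS.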

[2] = biological target: T1, GLP1R; test: GLP-1R/β-Arrestin recruitment assay (PathHunter eXpress GLP1R CHO-K1 β-Arrestin GPCR Assay); assay type: cell-based; set-up: host or cells: PathHunter CHO-K1 GLP1R β-Arrestin cells; settings: averaged Bmax, percentage of control GLP-1 (7-37), highest concentration tested
Source text: GLP-1R agonist activity with respect to β-arrestin recruitment can be determined with a cell-based functional assay using PathHuntcr eXpress GLP1R CHO-K1 β-Arrestin GPCR Assay kit (DiscovcrX Cat #93-0300E2CP0M).
The PathHunter β-Arrestin GPCR assay technology utilizes a β-galactosidase (β-gal) enzyme that is split into two fragments, the smaller Enzyme Donor (ED) and the larger Enzyme Acceptor (EA). These fragments can be fused to two proteins that may interact with each other, such as EA-β-Arrestin and ED-GLP-1R. The fusions can be stably expressed in a test cell line, such as the PathHunter CHO-K1 GLP1R β-Arrestin cells described below.
Independently, these fragment fusions have no β-gal activity; however, in solution or in a living cell, they can be brought together and complement to form an active β-gal enzyme due to the interaction between the fused proteins, thus generating a chemiluminescent signal in the presence of a suitable β-gal substrate.
In this experiment, PathHunter CHO-K1 GLP1R β-Arrestin cells from the assay kit were plated at a density of 1000 or 2000 cells/20 μl/well in a 384-well white/clear bottom plates (Greiner Cat #781098). Frozen cells were quickly thawed and 10 mL of cell plating medium (provided by the kit) was added to thawed cells. Cells were stored in a 37° C. incubator under 5% CO2 and kept for approximately 48 hours until ready to ran the assay.
Reference and test compounds were dissolved in 100% DMSO. 5× concentration of an agonist was prepared in serum free DMEM (Thermo Cat #11965). 5 μL of this solution was added to 20 μL cell medium in assay plate for a final top concentration of 10 μM. Plates were then incubated at 37° C. under 5% CO2 for 90 min.
Following 90 min incubation, detection reagents were made up by combining 1 part Galacton Star Substrate with 5 parts Emerald II™ Solution, and 19 parts of PathHunter Cell Assay Buffer, respectively. 12.5 μL detection reagent was added to each well. The plates were then incubated at room temperature in dark for 60 min. Plates were then read on Envision for 0.1 sec/well.
EC50 determinations were made from agonist dose-response curves analyzed with a curve fitting program using a 4-parameter logistic dose response equation.
Cells were plated at a density of 1000 or 2000 cells/20 μL/well. Frozen cells were quickly thawed and added to 10 mL of cell plating medium. Cells were stored in a 37° C. incubator under 5% CO2 and left for approximately 48 hours until ready to run the assay.
• 1) Reference agonist compound GLP1 (7-37): dissolved with DMSO to make 1 mM stock solutions, aliquoted and stored at −80° C. • 2) Test compounds (such as the compounds of the invention) came solubilized in 100% DMSO.
Prepare 10× concentration of an agonist in serum free DMEM, and add all solutions into the compound plate. 2.5 μL of this solution was added to 20 μL cell medium in assay plate for a final top concentration of 10 μM. Plates were incubated at 37° C. under 5% CO2 for 30 min. An additional 2.5 μL of Buffer was added to the entire plate for agonist mode and incubated at 37° C. for another 90 min.
Following 90 min incubation, detection reagents were made up as described. 12.5 μL was added to all wells. The plates were then incubated at room temperature in dark for 60 min. Plates were then read on Envision for 0.1 sec/well.
Data analysis: GraphPad Prism 6 was used for establishment of progression curve. EC50S or IC50s were determined by 4-parameter logistic dose response equation.

T1 sequence (P43220 24-463): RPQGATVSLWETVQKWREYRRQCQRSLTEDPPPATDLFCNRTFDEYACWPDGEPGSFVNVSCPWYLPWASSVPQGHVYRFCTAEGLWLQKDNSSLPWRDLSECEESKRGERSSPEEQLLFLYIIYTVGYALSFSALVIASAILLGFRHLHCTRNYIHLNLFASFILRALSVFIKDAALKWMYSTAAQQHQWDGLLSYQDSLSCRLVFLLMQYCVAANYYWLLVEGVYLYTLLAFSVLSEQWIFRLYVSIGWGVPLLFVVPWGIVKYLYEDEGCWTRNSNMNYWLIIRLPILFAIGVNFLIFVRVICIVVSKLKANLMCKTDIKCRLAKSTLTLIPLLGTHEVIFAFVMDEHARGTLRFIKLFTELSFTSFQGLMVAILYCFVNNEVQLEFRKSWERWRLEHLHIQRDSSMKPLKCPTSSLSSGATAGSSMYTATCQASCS

Row | Structure (SMILES) | EC50 [1] [nM] | Bmax (POC) [2] [POC]
1 | N#Cc1ccc(COc2nccc(N3CCN(Cc4nc5ccc(C(=O)O)cc5n4C[C@@H]4CCO4)CC3)n2)c(F)c1 [Compound 10, (S)-2-((4-(2-((4-cyano-2-fluorobenzyl)oxy)pyrimidin-4-yl)piperazin-1-yl)methyl)-1-(oxetan-2-ylmethyl)-1H-benzo[d]imidazole-6-carboxylic acid] | ≤ 150 | 4.48
2 | N#Cc1ccc(COc2cncc(N3CCN(Cc4nc5ccc(C(=O)O)cc5n4C[C@@H]4CCO4)CC3)n2)c(F)c1 [Compound 12, (S)-2-((4-(6-(4-cyano-2-fluorobenzyloxy)pyrazin-2-yl)piperazin-1-yl)methyl)-1-(oxetan-2-ylmethyl)-1 h-benzo[d]imidazole-6-carboxylic acid] | ≤ 15 | 9.66
3 | O=C(O)c1ccc2nc(CN3CCN(c4cccc(NCc5ccc(Cl)cc5F)n4)CC3)n(C[C@@H]3CCO3)c2c1 [Compound 1, (S)-2-((4-(6-(4-chloro-2-fluorobenzylamino)pyridin-2-yl)piperazin-1-yl)methyl)-1-(oxetan-2-ylmethyl)-1 h-benzo[d]imidazole-6-carboxylic acid] | ≤ 15 | 2.80
4 | O=C(O)c1ccc2nc(CN3CCN(c4cncc(OCc5ccc(Cl)cc5F)n4)CC3)n(C[C@@H]3CCO3)c2c1 [Compound 11, (S)-2-((4-(6-(4-chloro-2-fluorobenzyloxy)pyrazin-2-yl)piperazin-1-yl)methyl)-1-(oxetan-2-ylmethyl)-1 h-benzo[d]imidazole-6-carboxylic acid] | ≤ 15 | 7.16
